Patent US8338619B2, “Crystalline form of the zoledronic acid, a process to obtain it and the pharmaceutical composition comprising it” (Gador S.A., priority 2005, dated 2012)

Assay: TGA Kinetics Analysis of dehydration (constant heating rate thermogravimetry, ASTM E1641)
Type: physicochemical
Experimental: In this Example, thermogravimetric analysis (TGA) is used as an analytical methodology to quantify the thermal stability parameters of solid chemicals. The data generated from these measurements is analyzed to obtain Arrhenius kinetic parameters such us activation energy (Ea) and preexponential factor. The activation energies of two different hydrates—zoledronic acid monohydrate and trihydrate—is obtained to analyze the dehydration reaction of these two forms to anhydrous form so that the their relative solid-state thermal stability can be ranked based on their activation energy values.
Thermogravimetric analysis (TGA) is a thermal analysis technique which measures the amount and rate of change on the weight of a material as a function of temperature or time in a controlled atmosphere. TGA measurements are used primarily to determinate the composition of materials and to predict their thermal stability up to elevate temperatures. However, with proper experimental procedures, additional information about the kinetics of decomposition and in-use lifetime predictions can be obtained.
TGA Kinetics Analysis method covers determination of the kinetic parameters, Arrhenius activation energy preexponential factor by thermogravimetry, based on the assumption that the decomposition to obeys first-order kinetics.
This program utilizes data gathered by running a sample at various heating rates. […]

Compound	solid-state kinetic thermal stability (relative ranking from activation energy) (trihydrate vs monohydrate)	Activation energy (dehydration to anhydrous form) (at 50.0 percent of conversion level, TGA at 5, 10 and 20° C./min from 25 to 200° C., dry nitrogen purge, Monohydrate) [kcal/mol]
O=P(O)(O)C(O)(Cn1ccnc1)P(=O)(O)O [Zoledronic acid trihydrate, Zoledronic Acid Trihydrate]	greater than monohydrate form	
O=P(O)(O)C(O)(Cn1ccnc1)P(=O)(O)O [Zoledronic acid monohydrate, Zoledronic Acid Monohydrate]		36.33
